The source of these data is article PMC8536575, “Acute effects of the imidacloprid metabolite desnitro-imidacloprid on human nACh receptors relevant for neuronal signaling” (Archives of Toxicology, 2021).

Structures are written as SMILES. Some results are limits rather than exact numbers.

As usually defined, the LD50 is the dose expected to kill half of the subjects tested. What is called hepatocyte CLint is the capacity of the preparation to metabolise the compound, expressed as a volume cleared per time. The low end stands for slow turnover, the high end for rapid turnover.

The test system of data set [1] is nAChRs on LUHMES neurons. On the set-up: method as in Loser et al. [2021a]. The following applies: ref Loser et al. [2021a]; cited from earlier work.
The target of data set [2] is T1, human α7 nAChR (Homo sapiens, UniProt P36544).
T1 construct: expressed in transfected cells; host or cells: Xenopus laevis oocytes, injection of 30 ng mRNA (pCDNA3.1, T7 transcript)
T1 sequence (P36544 23-502): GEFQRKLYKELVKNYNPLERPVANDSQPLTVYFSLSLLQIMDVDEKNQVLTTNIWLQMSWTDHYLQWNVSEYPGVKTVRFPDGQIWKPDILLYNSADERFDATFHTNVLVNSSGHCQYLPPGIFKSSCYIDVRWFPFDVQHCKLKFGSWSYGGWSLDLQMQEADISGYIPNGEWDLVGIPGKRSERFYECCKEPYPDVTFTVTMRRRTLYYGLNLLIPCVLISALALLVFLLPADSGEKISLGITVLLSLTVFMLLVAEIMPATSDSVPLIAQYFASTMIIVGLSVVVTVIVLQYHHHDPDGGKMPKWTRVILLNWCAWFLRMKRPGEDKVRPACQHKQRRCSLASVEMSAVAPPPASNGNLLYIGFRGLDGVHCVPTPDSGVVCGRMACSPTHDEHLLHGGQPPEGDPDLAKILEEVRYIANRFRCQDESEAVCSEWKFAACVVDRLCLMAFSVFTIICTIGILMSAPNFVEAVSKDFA
The data set is described as follows: Two-electrode voltage-clamp recordings, Xenopus laevis oocytes expressing human α7 nAChR. It counts as cell-based. The conditions noted are these: for inward currents: tested up to 100 µM range.

Data set [3] concerns the target T2, human α4β2 (LS) nAChR (Homo sapiens, UniProt P17787+P43681).
T2 construct: expressed in transfected cells; host or cells: Xenopus laevis oocytes, mRNA injection, 10 ng α4 and 1 ng β2
The data set is described as follows: Two-electrode voltage-clamp recordings, Xenopus laevis oocytes expressing human α4β2 (LS) nAChR. The conditions noted are these: tested concentration range ≤ 100 µM. The data set is classed as cell-based. The source says:
(§1) The human α7 nAChR subunit was cloned in the pCDNA3.1 vector.
(§2) For the generation of the mRNA for injection, the plasmid DNAs of α3, α4, β2, and β4 were linearized with the NotI restriction endonuclease (New England Biolabs) and the plasmid DNA of α7 was linearized with the XbaI restriction endonuclease (New England Biolabs). The mRNAs of α3, α4, β2, and β4 were generated by in vitro transcription using the mMESSAGE mMACHINE SP6 Transcription Kit (Invitrogen). For the generation of α7 mRNA, the mMESSAGE mMACHINE T7 Transcription Kit (Invitrogen) was used. For the separation of the DNA and mRNA, a phenol–chloroform extraction (Chomczynski and Sacchi [2006]) was performed. The mRNA was then obtained by ethanol precipitation from the aqueous phase; for quantification, the BioPhotometer (Eppendorf) was used.
(§3) The recordings of human α7, α3β4, α4β2, and α4β4 nAChRs expressed in Xenopus laevis oocytes (EcoCyte Bioscience) were performed in two-electrode voltage-clamp mode using the Roboocyte2 system and the corresponding software (version 1.4.1; Multi Channel Systems MCS). Prior to the recordings, the oocytes were maintained at 19 °C in modified Barth’s solution containing [mM]: 88 NaCl, 1 KCl, 0.33 Ca(NO3)2, 0.82 MgSO4, 2.4 NaHCO3, 0.41 CaCl2, 5 Tris, 100 U/ml penicillin, 100 µg/ml streptomycin, pH 7.4.
(§4) To express human α7 nAChR, we injected 50 nl of mRNA solution (30 ng mRNA) per oocyte, using the Roboinject and the corresponding software (version 1.2.1; Multi Channel Systems MCS). […]
(§5) The baseline correction of voltage-clamp oocyte recordings was performed with the Roboocyte2 + software (version 1.4.3; Multi Channel Systems MCS, Germany). The maximal current influx and further analysis were executed in scripts written in R. In the antagonist experiments with oocytes, the maximal inward current was determined for the last response of each period (control, three antagonist concentrations, and washout).
In general terms: Two-electrode voltage clamp is typically applied to oocytes expressing channels or transporters.

Data set [4] addresses T3, human α3β4 nAChR (Homo sapiens, UniProt P30926+P32297).
T3 construct: expressed in transfected cells; host or cells: Xenopus laevis oocytes, mRNA injection, 0.33 ng α3 and 3.33 ng β4
In words: Two-electrode voltage-clamp recordings, Xenopus laevis oocytes expressing human α3β4 nAChR. It counts as cell-based.

The target of data set [5] is T4, human α4β2 (HS) nAChR (Homo sapiens, UniProt P17787+P43681).
T4 construct: expressed in transfected cells; host or cells: Xenopus laevis oocytes (EcoCyte Bioscience), mRNA injection, 3 ng α4 and 30 ng β2
T4 sequence (P43681 27-627): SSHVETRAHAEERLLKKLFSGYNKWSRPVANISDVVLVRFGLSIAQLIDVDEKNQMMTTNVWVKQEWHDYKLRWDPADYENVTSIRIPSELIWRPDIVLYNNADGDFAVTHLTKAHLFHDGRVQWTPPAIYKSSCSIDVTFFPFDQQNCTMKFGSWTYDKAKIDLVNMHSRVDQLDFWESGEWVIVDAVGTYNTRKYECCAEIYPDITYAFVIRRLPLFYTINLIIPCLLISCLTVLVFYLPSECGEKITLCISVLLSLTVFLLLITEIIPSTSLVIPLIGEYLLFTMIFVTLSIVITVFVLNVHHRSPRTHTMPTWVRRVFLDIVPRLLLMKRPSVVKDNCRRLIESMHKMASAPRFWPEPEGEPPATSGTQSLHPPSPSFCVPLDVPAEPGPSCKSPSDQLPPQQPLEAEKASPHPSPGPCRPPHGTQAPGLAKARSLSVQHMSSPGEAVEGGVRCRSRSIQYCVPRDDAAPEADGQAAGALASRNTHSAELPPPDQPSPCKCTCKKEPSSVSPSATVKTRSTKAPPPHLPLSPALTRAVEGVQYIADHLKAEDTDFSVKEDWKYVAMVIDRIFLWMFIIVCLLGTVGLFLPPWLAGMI
T4 sequence (P17787 26-502): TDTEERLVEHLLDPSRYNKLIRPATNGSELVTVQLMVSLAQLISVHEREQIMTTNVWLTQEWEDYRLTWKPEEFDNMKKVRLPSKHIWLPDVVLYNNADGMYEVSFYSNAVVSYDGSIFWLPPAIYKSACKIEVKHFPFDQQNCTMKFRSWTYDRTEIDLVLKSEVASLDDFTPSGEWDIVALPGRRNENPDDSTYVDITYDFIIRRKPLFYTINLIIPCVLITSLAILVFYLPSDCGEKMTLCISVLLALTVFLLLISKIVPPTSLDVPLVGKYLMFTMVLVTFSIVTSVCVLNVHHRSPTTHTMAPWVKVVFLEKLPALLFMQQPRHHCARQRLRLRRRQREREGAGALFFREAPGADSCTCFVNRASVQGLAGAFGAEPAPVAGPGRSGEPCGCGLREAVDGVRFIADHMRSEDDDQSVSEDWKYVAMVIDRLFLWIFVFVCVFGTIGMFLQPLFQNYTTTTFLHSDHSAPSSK
In words: Two-electrode voltage-clamp recordings, Xenopus laevis oocytes expressing human α4β2 (HS) nAChR. It counts as cell-based.

Data set [6] deals with T5, human α4β4 nAChR (Homo sapiens, UniProt P30926+P43681).
T5 construct: expressed in transfected cells; host or cells: Xenopus laevis oocytes, mRNA injection, 3.33 ng α4 and 3.33 ng β4
T5 sequence (P43681 27-627): as the sequence (P43681 27-627) above
T5 sequence (P30926 22-498): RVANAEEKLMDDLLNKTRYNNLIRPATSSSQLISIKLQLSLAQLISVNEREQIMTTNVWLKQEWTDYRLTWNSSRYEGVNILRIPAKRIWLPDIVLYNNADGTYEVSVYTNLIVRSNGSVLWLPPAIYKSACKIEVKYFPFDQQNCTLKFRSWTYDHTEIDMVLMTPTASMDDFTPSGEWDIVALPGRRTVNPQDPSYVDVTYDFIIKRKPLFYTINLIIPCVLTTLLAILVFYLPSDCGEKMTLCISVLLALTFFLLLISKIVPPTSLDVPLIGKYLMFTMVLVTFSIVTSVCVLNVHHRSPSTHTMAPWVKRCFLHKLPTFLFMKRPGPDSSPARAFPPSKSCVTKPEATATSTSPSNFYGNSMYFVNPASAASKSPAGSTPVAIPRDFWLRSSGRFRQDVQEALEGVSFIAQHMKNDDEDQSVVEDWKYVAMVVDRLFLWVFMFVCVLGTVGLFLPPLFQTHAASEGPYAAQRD
In words: Two-electrode voltage-clamp recordings, Xenopus laevis oocytes expressing human α4β4 nAChR. The following applies: tested concentration range ≤ 100 µM. It counts as cell-based.
Description: as §1, §2, §3, §4, §5

For data set [7], the system named is mice. The conditions noted are these: ref Chao and Casida [1997], cited from earlier work.
Data set [8] has as its system nAChRs on LUHMES neurons. The data set is described as follows: High-throughput Ca2+-imaging of LUHMES neurons (agonist effect). The data set is classed as cell-based, human. The protocol: For Ca^2+-imaging, the cells were pre-differentiated for 48 h in cell culture flasks, detached and plated at a density of 20,000 cells and 30,000 cells per well on 0.1% PEI-coated 384-well and 96-well plates (Greiner Bio-One), respectively, for the Ca^2+-imaging. The cells were further differentiated for another 7 days. 50% of the medium was exchanged every 2–3 days.
(§6) Ca^2+-imaging was performed using HT Functional Drug Screening System FDSS/µCELL (Hamamatsu Photonics) at nominal 37 °C. The FDSS/µCell system enables the indirect recording of changes of [Ca^2+]i via a Ca^2+-sensitive fluorescent dye. The fluorescence signal of a complete 384-well plate is acquired at once with a high-speed and high-sensitivity digital ImagEM X2 EM-CCD camera (Electron Multiplying Charge-Coupled Device, Hamamatsu Photonics), but with limited spatial resolution. Therefore, the software only determines the mean fluorescence signal of each well rather than of individual cells. For compound application, the integrated dispenser head with 384 pipette tips was used, which can add the test compound to all wells simultaneously. Cells were preincubated with Cal-520 AM (AAT Bioquest) at a concentration of 1 µM for 1 h at 37 °C. For recording, the medium was exchanged by a buffer solution containing [mM]: 135 NaCl, 5 KCl, 0.2 MgCl2, 2.5 CaCl2, 10 HEPES, and 10 D-glucose, pH 7.4. Test compound application was executed after obtaining a 1.5 min baseline recording. Where applicable, a second application was executed 4.5 min after the first application. The total recording never exceeded 8 min.
(§7) For the high-throughput Ca^2+-imaging data obtained in LUHMES cells, an offset correction using the FDSS software (version 3.2) was performed. Afterward, the data were exported and further analyzed with scripts written in R (version 3.6.3) (R Core Team [2020]). The concentration–response curves were fitted using a log-logistic model described by Ritz et al. ([2015]), utilizing the R package drc with its function drm() and LL2.2() with the following equation: f(x) = d/[1 + exp(b(log(x) − ẽ))] (Ritz et al. [2015]). The logarithm of the half-maximal effective concentration (logEC50) between 0 and the upper limit (d), which was set to 1, is represented by ẽ, x denotes the concentration, and b stands for the slope parameter (Ritz et al. [2015]). In cases with normalizations to responses induced by other compounds, the function LL2.3() was used with a variable upper limit (d; Ritz et al. [2015]). The same equation was used to determine the half-maximal inhibitory concentration (logIC50). Then the logEC50 and logIC50 values were converted into the pIC50 and pEC50 values, which are the negative logarithms to base 10.

In data set [9] the test system is nAChRs on LUHMES neurons. In words: Desensitization of nAChR agonist-evoked [Ca2+]i responses of LUHMES neurons. It counts as cell-based, human. The following applies: pretreatment […], 3 µM nicotine. The protocol:
as §6, §7
Fig. 4 Desensitizing effects of DN-IMI and IMI-olefin on nAChRs. LUHMES neurons differentiated in 384-well plates were pretreated with various concentrations of DN-IMI or IMI-olefin for 4.5 min before different nAChR agonists were applied and [Ca^2+]i signals were recorded. […] Note the treatment scheme (upper right corner), illustrating the experimental design. […] Note the treatment scheme (upper right corner), illustrating the experimental design. Detailed data on n numbers are found in Table S6

The subject of data set [10] is nAChRs on LUHMES neurons. In words: Inhibition of DN-IMI-evoked [Ca2+]i responses of LUHMES neurons by nAChR antagonists. It counts as cell-based, human. The following applies: for pIC50 for inhibition of DN-IMI-induced [Ca2+]i response: antagonist pretreatment, DN-IMI 0.5 µM. As for the experimental part: as §6, §7
LUHMES neurons differentiated in 384-well plates were pretreated with various concentrations of nAChR antagonists before DN-IMI (0.5 µM) was applied in Ca^2+-imaging experiments. […] Note the treatment scheme (upper right corner), illustrating the experimental design. […] Detailed data on n numbers are found in Table S6

The subject of data set [11] is human α3β2 nAChRs. Details: method as in Chavez-Noriega et al. [2000]. The conditions noted are these: ref Chavez-Noriega et al. [2000]; cited from earlier work.
Data set [12] deals with nAChRs on SH-SY5Y cells. The data set is described as follows: Inhibition of DN-IMI-evoked [Ca2+]i response of SH-SY5Y cells by mecamylamine. The following applies: Mec 125 µM, presence of PNU (10 µM). It counts as cell-based, human.
A short description of data set [13]: in vitro. The following applies: human, hepatocytes. The source says: Renal clearance for DN-IMI was assumed to be governed only by passive processes, with both filtration and passive reabsorption being accounted for. Passive permeability was scaled from the predicted permeability in the intestine (Peff 0.37 10-4 cm/s) accounting for the surface area of the proximal tubules in the kidney.

The mark [14] stands for this setting: from curve-fitted concentration–response data.

T3 sequence (P32297 32-505): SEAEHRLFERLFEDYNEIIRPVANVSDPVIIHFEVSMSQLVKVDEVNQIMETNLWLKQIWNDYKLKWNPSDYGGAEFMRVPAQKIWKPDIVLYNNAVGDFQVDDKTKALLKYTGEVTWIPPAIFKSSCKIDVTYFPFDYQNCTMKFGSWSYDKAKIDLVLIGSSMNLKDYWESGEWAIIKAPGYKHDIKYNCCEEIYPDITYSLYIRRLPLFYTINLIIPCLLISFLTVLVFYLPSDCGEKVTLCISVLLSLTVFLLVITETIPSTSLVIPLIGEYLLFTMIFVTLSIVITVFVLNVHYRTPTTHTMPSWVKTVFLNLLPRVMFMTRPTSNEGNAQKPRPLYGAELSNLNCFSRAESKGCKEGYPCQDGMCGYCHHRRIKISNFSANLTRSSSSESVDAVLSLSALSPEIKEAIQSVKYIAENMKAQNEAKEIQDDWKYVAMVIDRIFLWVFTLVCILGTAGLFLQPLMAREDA
T3 sequence (P30926 22-498): as the sequence (P30926 22-498) above
T2 sequence (P43681 27-627): as the sequence (P43681 27-627) above
T2 sequence (P17787 26-502): as the sequence (P17787 26-502) above

In the case of `CC(=O)OCC[N+](C)(C)C` [ACh, Acetylcholine chloride], the “pEC50 in LUHMES neurons” value in [1] is on record as ~ 6.0.

As for `O=[N+]([O-])NC1=NCCN1Cc1ccc(Cl)nc1` [IMI, imidacloprid], the inward currents entry in data set [2] is “significant inward currents but with a lower potency and efficacy than DN-IMI”; in [4] (concentration-dependent, up to 100 µM), “small but significant inward currents”. Besides, the “activation of the receptor” value in data set [3], in [5] (tested concentration range ≤ 100 µM) and in [6] was “did not trigger a concentration-dependent activation” throughout. Besides, in [7] (Tomizawa et al. [2000], [2001]), the LD50 is 35 to 50 mg/kg.

Take `O=[N+]([O-])Nc1nccn1Cc1ccc(Cl)nc1` [IMI-olefin, imidacloprid-olefin]: in [2], the inward currents result is “significant inward currents but with a lower potency and efficacy than DN-IMI”. The “pEC50 of [Ca2+]i response (peak amplitude)” value in data set [8] (LUHMES neurons, absence of PNU, normalized to the maximal response stimulated by DN-IMI, tested ≤ 100 µM) is given as “not reached within the measurement range”. In [8] (PNU 10 µM, normalized to maximal response to IMI-olefin in presence of PNU), the “pEC50 of [Ca2+]i response in the presence of PNU” value came out at 5.5. The “response as % of the maximal response to DN-IMI” value in data set [8] (at 30–100 µM) was “around 15%”. Moreover, the “pIC50 for desensitization of the nicotine-evoked response” value in data set [9] is 4.9. Further, the lethality entry in data set [7] (highest tested dose of 50 mg/kg) is reported as “no lethality”.

As for `CC[N+](CC)(CC)CCOc1ccc(/C=C/c2ccccc2)cc1` [MG 624], in data set [10], the “pIC50 for inhibition of DN-IMI-induced [Ca2+]i response” value (“pIC50 for inhibition of DN-IMI-induced” for short) stood at 6.8 ± 0.03.

For `CCN1C[C@]2(COC(=O)c3ccccc3N3C(=O)C[C@H](C)C3=O)CC[C@H](OC)[C@@]34[C@@H]5C[C@H]6[C@H](OC)[C@@H]5[C@](O)(C[C@@H]6OC)[C@@](O)([C@@H](OC)[C@H]23)[C@@H]14` [MLA, Methyllycaconitine, reference compound], in data set [2] (DN-IMI 30 µM), the “block of DN-IMI-triggered inward current” value is “concentration-dependently and reversibly blocked”. The “pIC50 for inhibition of DN-IMI-induced” value in data set [10] is given as 6.8 ± 0.03.

For `CNC1(C)C2CCC(C2)C1(C)C` (stereo not shown) [Mec, Mecamylamine], the “pIC50, literature data for human α3β2 nAChRs” value in data set [11] is recorded as 6.6. Further, the “pIC50 for inhibition of DN-IMI-induced” value in [10] was 6.8 ± 0.03. For the same compound, the “block of DN-IMI-induced [Ca2+]i response in SH-SY5Y” value in [12] was “strongly blocked”. Moreover, in data set [5] (DN-IMI 1 µM), the “block of DN-IMI-triggered inward current” value is “concentration-dependently and reversibly blocked”.

As to `COc1cc2c3cc1Oc1cc(ccc1O)C[C@@H]1c4c(cc(OC)c(O)c4Oc4ccc(cc4)C[C@@H]3N(C)CC2)CC[N+]1(C)C` [Tubo, (+)-Tubocurarine chloride pentahydrate], the “pIC50 for inhibition of DN-IMI-induced” value in data set [10] was 5.9. For the same compound, in data set [10] (at 100 µM), the “block of DN-IMI-evoked response” value is reported as “completely blocked”. For the same compound, the “block of DN-IMI-triggered inward current” value in data set [4] (DN-IMI 30 µM) is “concentration-dependently and reversibly blocked”.

In the case of `CN1CCC[C@H]1c1cccnc1` [nicotine, (-)-Nicotine, reference compound], the “absolute EC25” value in data set [2] (setting [14]) was 30.2 µM; in [4] (setting [14]), 27.5 µM; in data set [5] (setting [14]) it was 0.17 µM. For the same compound, the estimated maximum in data set [2] (normalized to nicotine (1 mM)) and in data set [4] (normalized to nicotine (1 mM)) was ~ 1 each time. For the same compound, the “pEC50 in LUHMES neurons” value in data set [1] is reported as ~ 6.0. Moreover, the “higher potency on α4β2 (HS) nAChR than on other subtypes” value in [5] (comparison of EC25 values, α4β2 (HS) vs α7 and α3β4) was greater than 2 log-step.

`C[C@]12C=CC(=O)C=C1CC[C@@H]1[C@@H]2[C@@H](O)C[C@@]2(C)[C@H]1CC[C@]2(O)C(=O)CO` [prednisolone, reference compound]: the hepatocyte CLint in [13] stood at 379 µL/min/1e6 cells.
